Results published in ChEMBL document CHEMBL4387714, “Four N-(E)-cinnamoyl (cinnamamide) derivatives of aminoalkanols with promising anticonvulsant and analgesic activity” (Bioorg Med Chem Lett, 2019).
Activity calls are given as the source filed them.

Tests used:
[1] = system: Mus musculus; assay: Anticonvulsant activity in ip dosed 60-Hz corneal stimulation-induced full kindling albino CF1 mouse model of epilepsy assessed as reduction in seizure score treated 0.25 hrs prior to 60-Hz corneal stimulation; type: functional
[2] = system: Rattus norvegicus; assay: Antiallodynic activity in albino Sprague-Dawley rat model of sciatic nerve ligation-induced neuropathic pain assessed as increase in paw withdrawal threshold at 50 mg/kg, po measured after 2 hrs by Von Frey test relative to control; type: functional
[3] = system: Rattus norvegicus; assay: Antiallodynic activity in albino Sprague-Dawley rat model of sciatic nerve ligation-induced neuropathic pain assessed as increase in paw withdrawal threshold at 50 mg/kg, po measured after 4 hrs by Von Frey test relative to control; type: functional
[4] = system: Mus musculus; assay: Anticonvulsant activity in albino CF1 mouse assessed as metrazol dose causing first clonus at 150 mg/kg, ip administered 0.25 hrs prior to MTZ challenge (reference value: 31.1 +/- 1.4 mg/kg); type: functional
[5] = system: Mus musculus; assay: Anticonvulsant activity in albino CF1 mouse assessed as metrazol dose causing first clonus at 43 mg/kg, ip administered 0.25 hrs prior to MTZ challenge (reference value: 31.1 +/- 1.4 mg/kg); type: functional
[6] = system: Mus musculus; assay: Anticonvulsant activity in albino CF1 mouse assessed as time to clonus at 150 mg/kg, ip administered 0.25 hrs prior to MTZ challenge (reference value: 29 +/- 1.5 s); type: functional
[7] = system: Brain; assay: (§1) In vitro anticonvulsant activity in kainic acid-induced albino Sprague Dawley rat brain assessed as blockade of ACSF-stimulated spontaneous electrographic seizure-like activity in medial entorhinal cortex hippocampal brain slices by measuring burst duration at 100 uM measured after 20 mins relative to control; type: functional
[8] = system: Rattus norvegicus; assay: Antiallodynic activity in albino Sprague-Dawley rat model of sciatic nerve ligation-induced neuropathic pain assessed as time required to show maximum increase in paw withdrawal threshold at 50 mg/kg, po Von Frey test; type: functional
[9] = system: Mus musculus; assay: Anticonvulsant activity in 60-Hz corneal stimulation-induced full kindling albino CF1 mouse model of epilepsy assessed as reduction in seizure score at 60 mg/kg, ip administered 0.25 hrs prior to 60-Hz corneal stimulation; type: functional, organism-based
[10] = system: Mus musculus; assay: Anticonvulsant activity in albino CF1 mouse model of metrazol-induced seizures assessed as time to twitch at 150 mg/kg, ip administered 0.25 hrs prior to MTZ challenge (reference value: 26.1 +/- 1.2 s); type: functional
[11] = system: Mus musculus; assay: Anticonvulsant activity in albino CF1 mouse model of metrazol-induced seizures assessed as metrazol dose causing first twitch at 43 mg/kg, ip administered 0.25 hrs prior to MTZ challenge (reference value: 27.9 +/- 1.2 mg/kg); type: functional
[12] = system: Mus musculus; assay: Anticonvulsant activity in albino CF1 mouse model of metrazol-induced seizures assessed as metrazol dose causing first twitch at 150 mg/kg, ip administered 0.25 hrs prior to MTZ challenge (reference value: 27.9 +/- 1.2 mg/kg); type: functional
[13] = system: Brain; assay: as §1, with “rate” for “duration”; type: functional
[14] = Toxicity in albino CF1 mouse assessed as body weight at 43 mg/kg, ip measured at 0.25 hrs (reference value: 26.4 +/- 0.4 g); type: organism-based; conditions: in vivo
[15] = system: Rattus norvegicus; assay: Antiallodynic activity in albino Sprague-Dawley rat model of sciatic nerve ligation-induced neuropathic pain assessed as increase in paw withdrawal threshold at 50 mg/kg, po measured after 1 hr by Von Frey test relative to control; type: functional
[16] = system: Mus musculus; assay: Anticonvulsant activity in 60-Hz corneal stimulation-induced full kindling albino CF1 mouse model of epilepsy assessed as reduction in seizure score at 20 mg/kg, ip administered 0.25 hrs prior to 60-Hz corneal stimulation; type: functional, organism-based
[17] = system: Mus musculus; assay: Anticonvulsant activity in 60-Hz corneal stimulation-induced full kindling albino CF1 mouse model of epilepsy assessed as reduction in seizure score at 86 mg/kg, ip administered 0.25 hrs prior to 60-Hz corneal stimulation; type: functional, organism-based
[18] = system: Mus musculus; assay: (§2) Analgesic activity in formalin-induced albino CF1 mouse model of hyperalgesia assessed as time spent in paw licking during acute phase at 43 mg/kg, ip administered 0.25 hrs prior to formalin challenge measured first 2 mins of five minutes test for 10 mins by formalin test relative to control; type: functional
[19] = system: Mus musculus; assay: Anticonvulsant activity in albino CF1 mouse assessed as time to clonus at 43 mg/kg, ip administered 0.25 hrs prior to MTZ challenge (reference value: 29 +/- 1.5 s); type: functional
[20] = system: Mus musculus; assay: as §2, with “inflammatory” for “acute”, “10 to 40” for “10”; type: functional
[21] = system: Mus musculus; assay: (§3) Neuroprotective activity against controlled cortical impact-induced C57Bl/6 acute mouse model of traumatic brain injury assessed as lesion volume at 43 mg/kg, ip administered twice daily for 3 days starting from 0.5 hrs post controlled cortical impact challenge measured post-last dose by naurotrace 435/455 staining-based fluorescent microscopy (reference value: 11.9 +/- 0.7 mm3); type: functional
[22] = system: Rattus norvegicus; assay: Antiallodynic activity in albino Sprague-Dawley rat model of sciatic nerve ligation-induced neuropathic pain assessed as increase in paw withdrawal threshold at 50 mg/kg, po measured after 6 hrs by Von Frey test relative to control; type: functional
[23] = system: Mus musculus; assay: Anticonvulsant activity in albino CF1 mouse model of metrazol-induced seizures assessed as time to twitch at 43 mg/kg, ip administered 0.25 hrs prior to MTZ challenge (reference value: 26.1 +/- 1.2 s); type: functional
[24] = Toxicity in albino CF1 mouse assessed as body weight at 150 mg/kg, ip measured at 0.25 hrs (reference value: 26.4 +/- 0.4 g); type: organism-based; conditions: in vivo
[25] = system: Mus musculus; assay: Analgesic activity in formalin-induced albino CF1 mouse model of hyperalgesia assessed as time spent in paw licking during inflammatory phase at 186 mg/kg, ip administered 0.25 hrs prior to formalin challenge measured first 2 mins of five minutes test for 10 mins by formalin test relative to control; type: functional
[26] = system: Mus musculus; assay: Analgesic activity in formalin-induced albino CF1 mouse model of hyperalgesia assessed as time spent in paw licking during acute phase at 186 mg/kg, ip administered 0.25 hrs prior to formalin challenge measured first 2 mins of five minutes test for 10 mins by formalin test relative to control; type: functional
[27] = system: Mus musculus; assay: Anticonvulsant activity in albino CF1 mouse model of metrazol-induced seizures assessed as time to twitch at 56 mg/kg, ip administered 0.5 hrs prior to MTZ challenge (reference value: 26.5 +/- 1.0 s); type: functional
[28] = Toxicity in albino CF1 mouse assessed as body weight at 180 mg/kg, ip measured at 0.5 hrs (reference value: 29.3 +/- 0.3 g); type: organism-based; conditions: in vivo
[29] = system: Mus musculus; assay: Anticonvulsant activity in albino CF1 mouse assessed as time to clonus at 56 mg/kg, ip administered 0.5 hrs prior to MTZ challenge (reference value: 29.3 +/- 1.2 s); type: functional
[30] = system: Mus musculus; assay: Anticonvulsant activity in albino CF1 mouse model of metrazol-induced seizures assessed as metrazol dose causing first twitch at 56 mg/kg, ip administered 0.5 hrs prior to MTZ challenge (reference value: 25.6 +/- 0.9 mg/kg); type: functional
[31] = system: Mus musculus; assay: Anticonvulsant activity in 60-Hz corneal stimulation-induced full kindling albino CF1 mouse model of epilepsy assessed as reduction in seizure score at 70 mg/kg, ip administered 0.25 hrs prior to 60-Hz corneal stimulation; type: functional, organism-based
[32] = system: Mus musculus; assay: Anticonvulsant activity in 60-Hz corneal stimulation-induced full kindling albino CF1 mouse model of epilepsy assessed as reduction in seizure score at 25 mg/kg, ip administered 0.25 hrs prior to 60-Hz corneal stimulation; type: functional, organism-based
[33] = system: Mus musculus; assay: Anticonvulsant activity in 60-Hz corneal stimulation-induced full kindling albino CF1 mouse model of epilepsy assessed as reduction in seizure score at 15 mg/kg, ip administered 0.25 hrs prior to 60-Hz corneal stimulation; type: functional, organism-based
[34] = system: Mus musculus; assay: Anticonvulsant activity in albino CF1 mouse assessed as time to clonus at 180 mg/kg, ip administered 0.5 hrs prior to MTZ challenge (reference value: 29.3 +/- 1.2 s); type: functional
[35] = system: Mus musculus; assay: Anticonvulsant activity in albino CF1 mouse model of metrazol-induced seizures assessed as time to twitch at 180 mg/kg, ip administered 0.5 hrs prior to MTZ challenge (reference value: 26.5 +/- 1.0 s); type: functional
[36] = system: Mus musculus; assay: Anticonvulsant activity in albino CF1 mouse assessed as metrazol dose causing first clonus at 56 mg/kg, ip administered 0.5 hrs prior to MTZ challenge (reference value: 28.4 +/- 1.1 mg/kg); type: functional
[37] = system: Mus musculus; assay: Anticonvulsant activity in albino CF1 mouse assessed as metrazol dose causing first clonus at 180 mg/kg, ip administered 0.5 hrs prior to MTZ challenge (reference value: 28.4 +/- 1.1 mg/kg); type: functional
[38] = system: Mus musculus; assay: Anticonvulsant activity in 60-Hz corneal stimulation-induced full kindling albino CF1 mouse model of epilepsy assessed as reduction in seizure score at 42 mg/kg, ip administered 0.25 hrs prior to 60-Hz corneal stimulation; type: functional, organism-based
[39] = Toxicity in albino CF1 mouse assessed as body weight at 56 mg/kg, ip measured at 0.5 hrs (reference value: 29.3 +/- 0.3 g); type: organism-based; conditions: in vivo
[40] = system: Mus musculus; assay: Anticonvulsant activity in albino CF1 mouse model of metrazol-induced seizures assessed as metrazol dose causing first twitch at 180 mg/kg, ip administered 0.5 hrs prior to MTZ challenge (reference value: 25.6 +/- 0.9 mg/kg); type: functional
[41] = system: Mus musculus; assay: Anticonvulsant activity in albino CF1 mouse model of metrazol-induced seizures assessed as time to twitch at 196 mg/kg, ip administered 0.25 hrs prior to MTZ challenge (reference value: 25.9 +/- 1.3 s); type: functional
[42] = system: Mus musculus; assay: Anticonvulsant activity in albino CF1 mouse assessed as time to clonus at 196 mg/kg, ip administered 0.25 hrs prior to MTZ challenge (reference value: 29 +/- 1.6 s); type: functional
[43] = system: Mus musculus; assay: Anticonvulsant activity in albino CF1 mouse model of metrazol-induced seizures assessed as metrazol dose causing first twitch at 54 mg/kg, ip administered 0.25 hrs prior to MTZ challenge (reference value: 27.6 +/- 1.3 mg/kg); type: functional
[44] = system: Mus musculus; assay: Anticonvulsant activity in albino CF1 mouse assessed as metrazol dose causing first clonus at 196 mg/kg, ip administered 0.25 hrs prior to MTZ challenge (reference value: 30.9 +/- 1.6 mg/kg); type: functional
[45] = system: Mus musculus; assay: Anticonvulsant activity in albino CF1 mouse model of metrazol-induced seizures assessed as time to twitch at 54 mg/kg, ip administered 0.25 hrs prior to MTZ challenge (reference value: 25.9 +/- 1.3 s); type: functional
[46] = Toxicity in albino CF1 mouse assessed as body weight at 54 mg/kg, ip measured at 0.25 hrs (reference value: 26.5 +/- 0.3 g); type: organism-based; conditions: in vivo
[47] = system: Mus musculus; assay: Anticonvulsant activity in 60-Hz corneal stimulation-induced full kindling albino CF1 mouse model of epilepsy assessed as reduction in seizure score at 94 mg/kg, ip administered 0.25 hrs prior to 60-Hz corneal stimulation; type: functional, organism-based
[48] = system: Mus musculus; assay: as §3, with “at 54” for “at 43”; type: functional
[49] = system: Mus musculus; assay: Anticonvulsant activity in albino CF1 mouse assessed as metrazol dose causing first clonus at 54 mg/kg, ip administered 0.25 hrs prior to MTZ challenge (reference value: 30.9 +/- 1.6 mg/kg); type: functional
[50] = system: Mus musculus; assay: Anticonvulsant activity in albino CF1 mouse assessed as time to clonus at 54 mg/kg, ip administered 0.25 hrs prior to MTZ challenge (reference value: 29 +/- 1.6 s); type: functional
[51] = Toxicity in albino CF1 mouse assessed as body weight at 196 mg/kg, ip measured at 0.25 hrs (reference value: 26.5 +/- 0.3 g); type: organism-based; conditions: in vivo
[52] = system: Mus musculus; assay: Anticonvulsant activity in albino CF1 mouse model of metrazol-induced seizures assessed as metrazol dose causing first twitch at 196 mg/kg, ip administered 0.25 hrs prior to MTZ challenge (reference value: 27.6 +/- 1.3 mg/kg); type: functional

Cc1ccccc1/C=C/C(=O)N[C@@H](C)CO
ED50 [1]: 36.8 mg/kg
Activity [2]: 254%
Activity [3]: 249%
Activity [4]: 96.3 mg/kg
Activity [5]: 74.6 mg/kg
Time [6]: 90 s
Activity [7]: 82%
Time [8]: 2 h
Activity [9]: Active
Time [10]: 87.3 s
Activity [11]: 53.4 mg/kg
Activity [12]: 93.5 mg/kg
Activity [13]: 106%
Activity [14]: 25.6 g
Activity [15]: 233%
Activity [16]: inactive
Activity [17]: Active
Activity [18]: 34.23%
Time [19]: 67.2 s
Activity [20]: 84.29%
Activity [21]: 11.09 mm3
Activity [22]: 237%
Time [23]: 48.2 s
Activity [24]: 26.5 g

O=C(/C=C/c1ccc(Cl)cc1)N[C@H]1CC[C@H](O)CC1
Activity [25]: 0%
Activity [26]: 21.89%

CC(O)CNC(=O)/C=C/c1ccc(Cl)cc1 (racemic)
ED50 [1]: 51.1 mg/kg
Time [27]: 45.1 s
Activity [28]: 28.6 g
Time [29]: 65.6 s
Activity [30]: 45 mg/kg
Activity [31]: Active
Activity [32]: inactive
Activity [33]: inactive
Time [34]: 106.1 s
Time [35]: 60.8 s
Activity [36]: 65.4 mg/kg
Activity [37]: 105.4 mg/kg
Activity [38]: inactive
Activity [39]: 28.4 g
Activity [40]: 60.3 mg/kg

CCC(CO)NC(=O)/C=C/c1ccc(Cl)cc1 (racemic)
ED50 [1]: 25.7 mg/kg
Time [41]: 63 s
Time [42]: 90.2 s
Activity [43]: 36.2 mg/kg
Activity [7]: 90%
Activity [44]: 98.6 mg/kg
Time [45]: 33.9 s
Activity [46]: 26.5 g
Activity [13]: 87%
Activity [47]: Active
Activity [48]: 11.44 mm3
Activity [49]: 44.9 mg/kg
Time [50]: 42.1 s
Activity [51]: 26 g
Activity [52]: 68.7 mg/kg
